How the values were obtained:
[1] = test system: TACE; assay: TACE assay in N2a mouse neuroblastoma cells; format: cell-based; details: FIG. 9a
Experimental: TACE Assay. TACE was measured by incubating 5 μl cell homogenate, 3 μl buffer (50 mM Tris-HCl 7.4 plus 25 mM NaCl plus 4% glycerol), and 1 of 100 μM TACE substrate IV (Aβz-LAQAVRSSSR-DPa) (Calbiochem) for 20 min at 37° in 1.5-ml polypropylene centrifuge tubes (Jin et al., Anal Biochem. 2002; 302: 269-75). The reaction was stopped by cooling to 4° C. The samples were diluted to 1 ml and the fluorescence was rapidly measured (ex=320 nm, em=420 nm) in a Spex Fluorolog 2 spectrofluorometer.

[2] = test system: Endothelin-converting enzyme (ECE); assay: ECE assay in SH-SY5Y neuroblastoma cells; format: cell-based, human; details: bryostatin 0.27 nM, BR-101 1 μM, BR-111 1 μM; FIG. 10
Experimental: ECE assay. SH-S757 neuroblastoma cells were incubated with bryostatin (0.27 nM), BR-101 (PCP-LA) (1 μM), and BR-111 (DHA-CP6) (1 μM). Endothelin-converting enzyme (ECE) was measured fluorimetrically using the method of Johnson and Ahn, Anal. Biochem. 2000; 286: 112-118. A sample of cell homogenate (20 μl) was incubated in 50 mM MES-KOH, pH 6.0, 0.01% C12E10 (polyoxyethylene-10-tauryl ether), and 15 μM McaBK2. (7-Methoxycournarin-4-acetyl [Ala7-(2,4-Dinitrophenyl)Lys9]-bradykinin trifluoroacetate salt) (Sigma-Aldrich). After 60 min at 37° C., the reaction was quenched by adding trifluoroacetic acid to 0.5%. The sample was diluted to 1.4 ml with water and the fluorescence was measured at ex=334 nm, em=398 nm.

[3] = test system: Aβ; assay: Aβ levels in N2a neuroblastoma cells transfected with human APPSwe/PSID (Aβ1-42 ELISA); format: cell-based, mouse; details: for levels of intracellular Aβ / levels of secreted Aβ: 24 h incubation, various concentrations; for levels of intracellular Aβ: FIG. 7a; for levels of secreted Aβ: FIG. 7b; for concentration dependence of Aβ inhibition: BR-101 and BR-111 up to 10 to 100 μM
Experimental: Cell culture. Rat hippocampal H19-71GF-IR cells (ATCC, Manassas, Va.) were plated onto poly-L-lysine coated plates and grown at 35° C. in DMEM/10% FCS for several days until about 50% coverage was obtained. The cells were then induced to differentiate into a neuronal phenotype by replacing the medium with 5 ml N2 medium containing 10 ng/ml basic fibroblast growth factor at 39° C. and grown in T-75 flasks at 37° C. Human SH-SY5Y neuroblastoma cells (ATCC) were cultured in 45% F12K/45% MEM/10% FCS. Mouse N2A neuroblastoma cells were cultured in DMEM/10% FCS without glutamine. Rat hippocampal neurons from 18-day-old embryonic
(§1) AB Measurement and Cell Viability Assay. Aβ was measured using an Aβ1-42 human fluorimetric ELISA kit (Invitrogen) according to the manufacturer's instructions. Results were measured in a Biotek Synergy HT microplate reader. AlamarBlue and CyQuant NF (Invitrogen) according to the manufacturer's instructions.
To measure the effects of PKCε activation on Aβ production, we used mouse neuro2a (N2a) neuroblastoma cells transfected with human APPSwe/PSID, which produce large quantities of Aβ. Petanceska et al., J Neurochem. 1996; 74: 1878-84. […] With bryostatin, which activates PKC by binding to the diacylglycerol-binding site, the inhibition was biphasic, with concentrations of 20 nM or higher producing no net effect. This may be explained by the ability of this class of PKC activators to downregulate PKC when used at high concentrations.

[4] = test system: SH-SY5Y neuroblastoma cells; assay: Cell survival and proliferation (alamar Blue, CyQuant) in SH-SY5Y neuroblastoma cells; format: cell-based, human; details: for effect on proliferation: CyQuant staining, FIG. 11b; for effect on cell survival: alamar Blue, FIG. 11a
Experimental: as §1

Row | Compound | TACE activity [1] | ECE activity [2] | levels of intracellular Aβ [3] | levels of secreted Aβ [3] | concentration dependence of Aβ inhibition [3] | effect on proliferation [4] | effect on cell survival [4]
1 | CCC1CC1CC1CC1CC1CC1CC1CC1CC1CC1CC1CC1CCC(=O)OC (centres unmarked) [BR-111, methyl-3-(2-((2-((2-((2-((2-((2-ethylcyclopropyl)methyl)cyclopropyl)methyl)cyclopropyl)methyl)-cyclopropyl)methyl)cyclopropyl)methyl)cyclopropyl)propanoate] | small increases | sustained increase | markedly reduced | markedly reduced | monotonically increasing inhibition | no effect | no effect
2 | CCCCCC1CC1CC1CC1CCCCCCCC(=O)O (centres unmarked) [BR-101, 8-[2-(2-pentyl-cyclopropylmethyl)-cyclopropyl]-octanoic acid] | small increases | sustained increase | markedly reduced | markedly reduced | monotonically increasing inhibition | no effect | no effect
